Assay results published in ChEMBL document CHEMBL1147193, “New 5-substituted thiazolo[3,2-b][1,2,4]triazol-6-ones: synthesis and anticancer evaluation” (2007).

What was measured:
Assay type in all cases: functional
LOX IMVI = assay: Growth inhibition of human LOX IMVI cells after 48 hrs by SRB protein assay
HCC 2998 = assay: Growth inhibition of human HCC2998 cells after 48 hrs by SRB protein assay; details: HCC 2998, 48 h
OVCAR-3 = assay: Growth inhibition of human OVCAR-3 cells after 48 hrs by SRB protein assay; details: OVCAR-3, 48 h
NCI-H226 = assay: Growth inhibition of human NCI-H226 cells after 48 hrs by SRB protein assay; details: NCI-H226, 48 h
OVCAR-5 = assay: Growth inhibition of human OVCAR5 cells after 48 hrs by SRB protein assay; details: OVCAR-5, 48 h
SF-268 [1] = assay: Growth inhibition of human SF268 cells after 48 hrs by SRB protein assay; details: SF-268, 48 h
HOP-62 = assay: Growth inhibition of human HOP62 cells after 48 hrs by SRB protein assay; details: HOP-62, 48 h
KM12 = assay: Growth inhibition of human KM12 cells after 48 hrs by SRB protein assay; details: KM12, 48 h
SK-MEL-2 = assay: Growth inhibition of human SK-MEL-2 cells after 48 hrs by SRB protein assay; details: SK-MEL-2, 48 h
HCT-15 = assay: Growth inhibition of human HCT15 cells after 48 hrs by SRB protein assay; details: HCT-15, 48 h
786-0 = assay: Growth inhibition of human 786-0 cells after 48 hrs by SRB protein assay; details: 786-0, 48 h
RXF 393 = assay: Growth inhibition of human RXF393 cells after 48 hrs by SRB protein assay; details: RXF 393, 48 h
MCF7 = assay: Growth inhibition of human MCF7 cells after 48 hrs by SRB protein assay; details: MCF7, 48 h
NCI-H522 = assay: Growth inhibition of human NCI-H522 cells after 48 hrs by SRB protein assay; details: NCI-H522, 48 h
SK-MEL-5 = assay: Growth inhibition of human SK-MEL-5 cells after 48 hrs by SRB protein assay; details: SK-MEL-5, 48 h
RPMI-8226 = assay: Growth inhibition of human RPMI8226 cells after 48 hrs by SRB protein assay; details: RPMI-8226, 48 h
CAKI-1 = assay: Growth inhibition of human CAKI1 cells after 48 hrs by SRB protein assay; details: CAKI-1, 48 h
NCI-H460 = assay: Anticancer activity against human NCI-H460 cells assessed as growth of cells at 100 uM relative to untreated cells
OVCAR-8 = assay: Growth inhibition of human OVCAR8 cells after 48 hrs by SRB protein assay; details: OVCAR-8, 48 h
SK-OV-3 = assay: Growth inhibition of human SK-OV-3 cells after 48 hrs by SRB protein assay; details: SK-OV-3, 48 h
K562 = assay: Growth inhibition of human K562 cells after 48 hrs by SRB protein assay; details: K562, 48 h
UACC-62 = assay: Growth inhibition of human UACC62 cells after 48 hrs by SRB protein assay; details: UACC-62, 48 h
SN12C = assay: Growth inhibition of human SN12C cells after 48 hrs by SRB protein assay
ACHN = assay: Growth inhibition of human ACHN cells after 48 hrs by SRB protein assay
NCI/ADR-RES = assay: Growth inhibition of human NCI/ADR-RES cells after 48 hrs by SRB protein assay
IGROV-1 = assay: Growth inhibition of human IGROV1 cells after 48 hrs by SRB protein assay; details: IGROV-1, 48 h
UO-31 = assay: Growth inhibition of human UO31 cells after 48 hrs by SRB protein assay; details: UO-31, 48 h
CCRF-CEM = assay: Growth inhibition of human CCRF-CEM cells after 48 hrs by SRB protein assay
EKVX = assay: Growth inhibition of human EKVX cells after 48 hrs by SRB protein assay
SF-295 = assay: Growth inhibition of human SF295 cells after 48 hrs by SRB protein assay; details: SF-295, 48 h
PC-3 = assay: Growth inhibition of human PC3 cells after 48 hrs by SRB protein assay; details: PC-3, 48 h
A549 = assay: Growth inhibition of human A549/ATCC cells after 48 hrs by SRB protein assay; details: A549, 48 h
SF-268 [2] = assay: Anticancer activity against human SF268 cells assessed as growth of cells at 100 uM relative to untreated cells
[3] = Growth inhibition of human MDA-MB-231/ATCC cells after 48 hrs by SRB protein assay; details: MDA-MB-231, 48 h
SK-MEL-28 = assay: Growth inhibition of human SK-MEL-28 cells after 48 hrs by SRB protein assay; details: SK-MEL-28, 48 h
SW-620 = assay: Growth inhibition of human SW620 cells after 48 hrs by SRB protein assay; details: SW-620, 48 h
T47D = assay: Growth inhibition of human T47D cells after 48 hrs by SRB protein assay
Hs-578T = assay: Growth inhibition of human HS578T cells after 48 hrs by SRB protein assay
M14 = assay: Growth inhibition of human M14 cells after 48 hrs by SRB protein assay; details: M14, 48 h

GI50 (HCC 2998): 18.2 µM
GI50 (OVCAR-3): 13.2 µM
GI50 (NCI-H226): 20 µM
GI50 (OVCAR-5): 20 µM
GI50 (SK-MEL-2): 12.6 µM
GI50 (HCT-15): 12 µM
GI50 (786-0): 13.5 µM
GI50 (MCF7): 6.31 µM
GI50 (NCI-H522): 5.37 µM
GI50 (SK-MEL-5): 10.7 µM
GI50 (RPMI-8226): 2.95 µM
GI50 (OVCAR-8): 12.6 µM
GI50 (SK-OV-3): 29.5 µM
GI50 (K562): 7.59 µM
GI50 (ACHN): 14.5 µM
GI50 (CCRF-CEM): 0.355 µM
GI50 (PC-3): 11.7 µM
GI50 (A549): 21.4 µM
GI50 (SK-MEL-28): 16.6 µM
GI50 (SW-620): 14.8 µM
GI50 (T47D): 21.4 µM
SMILES: O=c1/c(=C/c2ccc(Cl)cc2)sc2ncnn12
GI50 (LOX IMVI): 10.7 µM
TGI (LOX IMVI; read-out: Log TGI (converted)): 25.1 µM
TGI (HCC 2998; read-out: Log TGI (converted)): 32.4 µM
TGI (OVCAR-3; read-out: Log TGI (converted)): 30.2 µM
TGI (NCI-H226; read-out: Log TGI (converted)): 55 µM
TGI (OVCAR-5; read-out: Log TGI (converted)): 34.7 µM
GI50 (SF-268 [1]): 16.2 µM
TGI (SF-268 [1]; read-out: Log TGI (converted)): 58.9 µM
GI50 (HOP-62): 15.8 µM
TGI (HOP-62; read-out: Log TGI (converted)): 35.5 µM
GI50 (KM12): 10.5 µM
TGI (KM12; read-out: Log TGI (converted)): 25.7 µM
TGI (SK-MEL-2; read-out: Log TGI (converted)): 28.2 µM
TGI (HCT-15; read-out: Log TGI (converted)): 34.7 µM
TGI (786-0; read-out: Log TGI (converted)): 28.8 µM
GI50 (RXF 393): 5.25 µM
TGI (RXF 393; read-out: Log TGI (converted)): 18.2 µM
TGI (MCF7; read-out: Log TGI (converted)): 30.9 µM
TGI (NCI-H522; read-out: Log TGI (converted)): 18.6 µM
TGI (SK-MEL-5; read-out: Log TGI (converted)): 23.4 µM
TGI (RPMI-8226; read-out: Log TGI (converted)): 17.4 µM
GI50 (CAKI-1): 19.5 µM
TGI (CAKI-1; read-out: Log TGI (converted)): 38.9 µM
Activity (NCI-H460): 3%
TGI (OVCAR-8; read-out: Log TGI (converted)): 36.3 µM
TGI (SK-OV-3; read-out: Log TGI (converted)): 55 µM
TGI (K562; read-out: Log TGI (converted)): 28.8 µM
GI50 (UACC-62): 14.5 µM
TGI (UACC-62; read-out: Log TGI (converted)): 29.5 µM
GI50 (SN12C): 15.5 µM
TGI (SN12C; read-out: Log TGI (converted)): 49 µM
TGI (ACHN; read-out: Log TGI (converted)): 38.9 µM
GI50 (NCI/ADR-RES): 26.3 µM
TGI (NCI/ADR-RES; read-out: Log TGI (converted)): 89.1 µM
GI50 (IGROV-1): 10 µM
TGI (IGROV-1; read-out: Log TGI (converted)): 24.5 µM
GI50 (UO-31): 12.3 µM
TGI (UO-31; read-out: Log TGI (converted)): 33.1 µM
TGI (CCRF-CEM; read-out: Log TGI (converted)): 20 µM
GI50 (EKVX): 14.5 µM
TGI (EKVX; read-out: Log TGI (converted)): 33.9 µM
GI50 (SF-295): 17.8 µM
TGI (SF-295; read-out: Log TGI (converted)): 35.5 µM
TGI (PC-3; read-out: Log TGI (converted)): 28.8 µM
TGI (A549; read-out: Log TGI (converted)): 83.2 µM
Activity (SF-268 [2]): 11%
GI50 [3]: 19.1 µM
TGI ([3]; read-out: Log TGI (converted)): 43.7 µM
TGI (SK-MEL-28; read-out: Log TGI (converted)): 35.5 µM
TGI (SW-620; read-out: Log TGI (converted)): 30.9 µM
TGI (T47D; read-out: Log TGI (converted)): > 100 µM
GI50 (Hs-578T): 14.1 µM
TGI (Hs-578T; read-out: Log TGI (converted)): 37.2 µM
GI50 (M14): 15.1 µM
TGI (M14; read-out: Log TGI (converted)): 35.5 µM
